How the values were obtained:
rabbit = conditions: Sub-acute repeat dose toxicity, new zealand white, Oral, Gavage/Intubation, dose end: 5 day, group: systemic
rat [1] = conditions: Subchronic oral toxicity in rodents, sprague dawley, Gavage/Intubation, dose end: 90 day, group: systemic
rat [2] = conditions: Fertility (Segment I); sprague dawley; Oral; Gavage/Intubation; dose end: 1 generation; group: parental; systemic / in life observation / body weight / body weight gain + systemic / in life observation / clinical signs / anogenital staining
dog [3] = conditions: Subchronic oral toxicity in nonrodent, beagle, Gavage/Intubation, dose end: 92 day, group: systemic
rat [4] = conditions: Fertility (Segment I), sprague dawley, Oral, Gavage/Intubation, dose end: 1 generation, group: parental
dog [5] = conditions: Sub-acute repeat dose toxicity, beagle, Oral, Gavage/Intubation, dose end: 14 day, group: systemic
rat [6] = conditions: Sub-acute repeat dose toxicity, sprague dawley, Oral, Gavage/Intubation, dose end: 14 day, group: systemic
mouse [7] = conditions: Carcinogenicity; cd1; Oral; Gavage/Intubation; dose end: 78 week; group: systemic; systemic / in life observation / body weight / body weight + systemic / in life observation / body weight / body weight gain
dog [8] = conditions: Chronic toxicity, beagle, Oral, Capsule, dose end: 52 week, group: systemic
rat [9] = conditions: Subchronic oral toxicity in rodents, fischer, Gavage/Intubation, dose end: 13 week, group: systemic
rat [10] = conditions: Chronic toxicity, sprague dawley, Oral, Gavage/Intubation, dose end: 24 month, group: systemic
mouse [11] = conditions: Subchronic oral toxicity in rodents, b6c3f1, Gavage/Intubation, dose end: 13 week, group: systemic
[12] = systemic / in life observation / body weight / body weight + systemic / in life observation / clinical signs / abnormal feces + systemic / …
[13] = systemic / in life observation / mortality / mortality + systemic / in life observation / body weight / body weight + systemic / in life …
[14] = systemic / in life observation / clinical signs / salivation + systemic / pathology microscopic / bone / proliferation
[15] = systemic / in life observation / clinical signs / salivation + systemic / pathology microscopic / bone / proliferation + systemic / …
[16] = systemic / clinical chemistry / albumin / albumin + systemic / in life observation / clinical signs / erythema + systemic / clinical …
[17] = systemic / in life observation / clinical signs / anogenital staining + systemic / in life observation / clinical signs / salivation
[18] = systemic / clinical chemistry / [other] / [other] + systemic / clinical chemistry / hepatic mixed function oxidase (mfo) assay / hepatic …
[19] = systemic / in life observation / clinical signs / abnormal feces
[20] = systemic / clinical chemistry / [other] / [other] + systemic / clinical chemistry / cytochrome p450, nos / cytochrome p450, nos + systemic…
[21] = systemic / clinical chemistry / albumin / albumin + systemic / clinical chemistry / albumin-globulin ratio / albumin-globulin ratio + …
[22] = systemic / hematology / leukocyte (wbc) count differential / leukocyte (wbc) + systemic / pathology microscopic / bone marrow / …
[23] = systemic / clinical chemistry / alkaline phosphatase (alp/alk) / alkaline phosphatase (alp/alk) + systemic / clinical chemistry / urea …
[24] = systemic / pathology microscopic / liver / hyperplasia
[25] = systemic / pathology microscopic / liver / hyperplasia + systemic / pathology microscopic / bone marrow / [other]
[26] = systemic / in life observation / body weight / body weight + systemic / in life observation / body weight / body weight gain + systemic / in…
[27] = systemic / organ weight / liver / absolute + systemic / organ weight / liver / relative to body weight

O=C(NO)C1(NS(=O)(=O)c2ccc(Oc3ccc(F)cc3)cc2)CCOCC1
LEL (rabbit; [12]): 60 mg/kg/day | NEL (rabbit; [12]): < 60 mg/kg/day | LOAEL (rabbit; [13]): > 600 mg/kg/day | NOAEL (rabbit; [13]): ≥ 600 mg/kg/day | LEL (rat [1]; [14]): 10 mg/kg/day | NEL (rat [1]; [14]): < 10 mg/kg/day | LOAEL (rat [1]; [15]): > 1000 mg/kg/day | NOAEL (rat [1]; [15]): ≥ 1000 mg/kg/day | LEL (rat [2]): 1000 mg/kg/day | LOAEL (rat [2]): > 1000 mg/kg/day | NEL (rat [2]): 50 mg/kg/day | NOAEL (rat [2]): ≥ 1000 mg/kg/day | NEL (dog [3]; systemic / clinical chemistry / albumin / albumin + systemic / in life observation / clinical signs / erythema): 10 mg/kg/day | LOAEL (dog [3]; [16]): > 400 mg/kg/day | NOAEL (dog [3]; [16]): ≥ 400 mg/kg/day | LEL (dog [3]; systemic / in life observation / clinical signs / erythema + systemic / clinical chemistry / albumin / albumin + systemic / clinical …): 100 mg/kg/day | LEL (rat [4]; systemic / in life observation / clinical signs / anogenital staining): 50 mg/kg/day | LOAEL (rat [4]; [17]): > 1000 mg/kg/day | NEL (rat [4]; [17]): 10 mg/kg/day | NOAEL (rat [4]; [17]): ≥ 1000 mg/kg/day | LOAEL (dog [5]; [18]): > 400 mg/kg/day | NOAEL (dog [5]; [18]): ≥ 400 mg/kg/day | LEL (dog [5]; [19]): 10 mg/kg/day | NEL (dog [5]; [19]): < 10 mg/kg/day | LOAEL (rat [6]; [20]): > 1000 mg/kg/day | NOAEL (rat [6]; [20]): ≥ 1000 mg/kg/day | LEL (rat [6]; systemic / in life observation / clinical signs / salivation): 50 mg/kg/day | NEL (rat [6]; systemic / in life observation / clinical signs / salivation + systemic / in life observation / clinical signs / urine staining - perineum…): 10 mg/kg/day

N#CSCSC#N [Methylene bis(thiocyanate)]
LEL (mouse [7]): 3 mg/kg/day | LOAEL (mouse [7]): 3 mg/kg/day | NEL (mouse [7]): 1.2 mg/kg/day | NOAEL (mouse [7]): 1.2 mg/kg/day | LOAEL (dog [8]; [21]): 2 mg/kg/day | NOAEL (dog [8]; [21]): 0.5 mg/kg/day | LEL (dog [8]; [22]): 0.5 mg/kg/day | NEL (dog [8]; [22]): < 0.5 mg/kg/day | LEL (rat [9]; [23]): 1 mg/kg/day | NEL (rat [9]; [23]): < 1 mg/kg/day | LOAEL (rat [9]; systemic / in life observation / mortality / mortality): 2 mg/kg/day | NOAEL (rat [9]; systemic / in life observation / mortality / mortality + systemic / clinical chemistry / alanine aminotransferase (alt/sgpt) / alanine …): 1 mg/kg/day | LOAEL (rat [10]; [24]): 0.4 mg/kg/day | NOAEL (rat [10]; [24]): < 0.4 mg/kg/day | LEL (rat [10]; [25]): 0.4 mg/kg/day | NEL (rat [10]; [25]): < 0.4 mg/kg/day | LOAEL (mouse [11]; [26]): > 16 mg/kg/day | NOAEL (mouse [11]; [26]): ≥ 16 mg/kg/day | LEL (mouse [11]; [27]): 1 mg/kg/day | NEL (mouse [11]; [27]): < 1 mg/kg/day

From EPA's ToxRefDB 2
